According to US6472165B1, “Modulatory binding site in potassium channels for screening and finding new active ingredients” (Arzneimittelwerk Dresden GmbH, priority 1999, dated 2002):

Columns and labels:
[1] = biological target: KCNQ1 channel (Homo sapiens, UniProt P51787); conditions: literature, Wang et al.; cited from earlier work
[2] = biological target: M channel (=KCNQ2+KCNQ3) (Homo sapiens, UniProt O43525+O43526); conditions: literature, Wang et al.; cited from earlier work
[3] = biological target: T1, Kv4.3 (Homo sapiens, UniProt Q9UK17); conditions: literature, Wang et al.; cited from earlier work
T1 sequence (Q9UK17 1-655): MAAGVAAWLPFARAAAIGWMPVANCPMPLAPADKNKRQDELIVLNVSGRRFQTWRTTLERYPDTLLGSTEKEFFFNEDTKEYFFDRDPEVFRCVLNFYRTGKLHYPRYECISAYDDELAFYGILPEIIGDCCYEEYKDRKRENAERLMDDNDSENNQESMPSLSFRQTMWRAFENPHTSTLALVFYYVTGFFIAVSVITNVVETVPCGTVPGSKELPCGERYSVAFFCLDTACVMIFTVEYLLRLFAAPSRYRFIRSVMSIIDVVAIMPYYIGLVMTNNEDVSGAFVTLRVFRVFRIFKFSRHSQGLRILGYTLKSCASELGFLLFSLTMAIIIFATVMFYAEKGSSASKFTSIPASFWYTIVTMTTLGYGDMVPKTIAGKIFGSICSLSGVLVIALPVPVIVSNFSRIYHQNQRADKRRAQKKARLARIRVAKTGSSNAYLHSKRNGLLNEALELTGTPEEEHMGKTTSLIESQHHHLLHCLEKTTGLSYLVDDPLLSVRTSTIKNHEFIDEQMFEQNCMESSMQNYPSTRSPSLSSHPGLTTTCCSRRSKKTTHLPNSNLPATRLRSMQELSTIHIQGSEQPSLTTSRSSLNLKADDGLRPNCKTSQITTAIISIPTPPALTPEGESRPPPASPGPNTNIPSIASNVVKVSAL

[4] = biological target: erg1 (Homo sapiens, UniProt Q12809); conditions: literature, Wang et al.; cited from earlier work
[5] = biological target: T2, eag1 (Homo sapiens, UniProt O95259); conditions: literature, Wang et al.; cited from earlier work
T2 sequence (O95259 1-989): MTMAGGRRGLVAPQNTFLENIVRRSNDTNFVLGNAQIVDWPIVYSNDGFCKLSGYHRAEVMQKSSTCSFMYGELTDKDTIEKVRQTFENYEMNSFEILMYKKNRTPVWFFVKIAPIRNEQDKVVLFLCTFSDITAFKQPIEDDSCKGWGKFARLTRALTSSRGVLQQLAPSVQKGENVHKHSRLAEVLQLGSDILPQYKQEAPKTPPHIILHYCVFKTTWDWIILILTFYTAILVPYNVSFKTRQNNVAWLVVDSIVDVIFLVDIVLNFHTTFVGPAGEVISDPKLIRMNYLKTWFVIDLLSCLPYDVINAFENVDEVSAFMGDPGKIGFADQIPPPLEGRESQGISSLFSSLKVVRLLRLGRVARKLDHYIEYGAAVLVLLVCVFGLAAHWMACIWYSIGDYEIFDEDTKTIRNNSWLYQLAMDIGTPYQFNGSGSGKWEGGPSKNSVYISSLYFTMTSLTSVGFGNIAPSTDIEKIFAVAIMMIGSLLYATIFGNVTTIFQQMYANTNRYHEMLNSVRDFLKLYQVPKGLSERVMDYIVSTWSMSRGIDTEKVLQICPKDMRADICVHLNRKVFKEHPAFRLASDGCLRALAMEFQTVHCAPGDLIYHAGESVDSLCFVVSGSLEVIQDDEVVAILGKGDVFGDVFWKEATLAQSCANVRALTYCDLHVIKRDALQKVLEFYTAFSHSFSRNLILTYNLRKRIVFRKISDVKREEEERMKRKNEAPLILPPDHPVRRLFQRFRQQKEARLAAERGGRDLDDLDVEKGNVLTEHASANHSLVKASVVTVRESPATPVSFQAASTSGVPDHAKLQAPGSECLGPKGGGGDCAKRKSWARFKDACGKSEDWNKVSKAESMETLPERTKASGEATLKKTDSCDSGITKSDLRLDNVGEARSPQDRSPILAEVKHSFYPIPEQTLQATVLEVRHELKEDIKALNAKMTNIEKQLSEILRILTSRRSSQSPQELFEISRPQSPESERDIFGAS

[6] = tested on: elk1; conditions: literature, Wang et al.; cited from earlier work
[7] = biological target: T3, erg3 (Homo sapiens, UniProt Q9NS40); conditions: literature, Wang et al.; cited from earlier work
T3 sequence (Q9NS40 1-1196): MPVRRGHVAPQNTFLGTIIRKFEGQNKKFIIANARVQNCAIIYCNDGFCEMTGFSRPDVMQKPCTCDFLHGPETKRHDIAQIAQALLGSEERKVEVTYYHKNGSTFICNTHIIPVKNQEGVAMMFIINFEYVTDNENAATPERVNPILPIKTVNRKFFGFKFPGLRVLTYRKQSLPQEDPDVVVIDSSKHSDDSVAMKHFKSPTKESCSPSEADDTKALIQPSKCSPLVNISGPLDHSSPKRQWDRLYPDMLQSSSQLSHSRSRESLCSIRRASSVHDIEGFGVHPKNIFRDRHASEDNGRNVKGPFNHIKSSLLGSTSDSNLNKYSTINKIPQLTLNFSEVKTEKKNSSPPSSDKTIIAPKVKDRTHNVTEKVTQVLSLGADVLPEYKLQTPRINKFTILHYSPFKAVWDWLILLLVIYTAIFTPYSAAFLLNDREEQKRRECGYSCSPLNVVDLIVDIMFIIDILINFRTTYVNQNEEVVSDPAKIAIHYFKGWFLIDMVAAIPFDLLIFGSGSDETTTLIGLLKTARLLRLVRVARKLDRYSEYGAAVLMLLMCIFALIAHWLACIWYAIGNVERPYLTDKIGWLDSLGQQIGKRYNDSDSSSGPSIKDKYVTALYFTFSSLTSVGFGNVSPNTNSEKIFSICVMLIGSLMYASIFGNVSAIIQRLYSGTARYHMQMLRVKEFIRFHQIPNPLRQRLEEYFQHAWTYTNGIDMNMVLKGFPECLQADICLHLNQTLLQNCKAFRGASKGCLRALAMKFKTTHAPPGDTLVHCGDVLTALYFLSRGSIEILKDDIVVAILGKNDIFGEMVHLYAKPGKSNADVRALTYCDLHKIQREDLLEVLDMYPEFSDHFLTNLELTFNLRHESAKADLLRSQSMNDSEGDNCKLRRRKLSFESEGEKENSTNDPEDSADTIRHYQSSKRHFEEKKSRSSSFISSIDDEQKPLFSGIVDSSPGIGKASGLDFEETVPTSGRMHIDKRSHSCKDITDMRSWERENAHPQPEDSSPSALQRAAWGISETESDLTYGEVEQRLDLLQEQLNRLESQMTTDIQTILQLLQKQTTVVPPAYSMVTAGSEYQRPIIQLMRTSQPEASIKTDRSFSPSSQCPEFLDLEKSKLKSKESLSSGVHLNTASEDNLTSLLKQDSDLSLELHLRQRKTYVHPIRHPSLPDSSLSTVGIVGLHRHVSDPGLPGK

[8] = biological target: Kv1.2 (Homo sapiens, UniProt P16389); conditions: literature, Wang et al.; cited from earlier work
[9] = biological target: T4, r-erg1 (Rattus norvegicus, UniProt O08962); test: Effect of retigabine on cloned potassium channels, patch clamp; format: cell-based; conditions: r-erg1, CHO cells
T4 construct: expressed in transfected cells; host or cells: CHO cells (liposome cDNA transfection)
T4 sequence (O08962 1-1163): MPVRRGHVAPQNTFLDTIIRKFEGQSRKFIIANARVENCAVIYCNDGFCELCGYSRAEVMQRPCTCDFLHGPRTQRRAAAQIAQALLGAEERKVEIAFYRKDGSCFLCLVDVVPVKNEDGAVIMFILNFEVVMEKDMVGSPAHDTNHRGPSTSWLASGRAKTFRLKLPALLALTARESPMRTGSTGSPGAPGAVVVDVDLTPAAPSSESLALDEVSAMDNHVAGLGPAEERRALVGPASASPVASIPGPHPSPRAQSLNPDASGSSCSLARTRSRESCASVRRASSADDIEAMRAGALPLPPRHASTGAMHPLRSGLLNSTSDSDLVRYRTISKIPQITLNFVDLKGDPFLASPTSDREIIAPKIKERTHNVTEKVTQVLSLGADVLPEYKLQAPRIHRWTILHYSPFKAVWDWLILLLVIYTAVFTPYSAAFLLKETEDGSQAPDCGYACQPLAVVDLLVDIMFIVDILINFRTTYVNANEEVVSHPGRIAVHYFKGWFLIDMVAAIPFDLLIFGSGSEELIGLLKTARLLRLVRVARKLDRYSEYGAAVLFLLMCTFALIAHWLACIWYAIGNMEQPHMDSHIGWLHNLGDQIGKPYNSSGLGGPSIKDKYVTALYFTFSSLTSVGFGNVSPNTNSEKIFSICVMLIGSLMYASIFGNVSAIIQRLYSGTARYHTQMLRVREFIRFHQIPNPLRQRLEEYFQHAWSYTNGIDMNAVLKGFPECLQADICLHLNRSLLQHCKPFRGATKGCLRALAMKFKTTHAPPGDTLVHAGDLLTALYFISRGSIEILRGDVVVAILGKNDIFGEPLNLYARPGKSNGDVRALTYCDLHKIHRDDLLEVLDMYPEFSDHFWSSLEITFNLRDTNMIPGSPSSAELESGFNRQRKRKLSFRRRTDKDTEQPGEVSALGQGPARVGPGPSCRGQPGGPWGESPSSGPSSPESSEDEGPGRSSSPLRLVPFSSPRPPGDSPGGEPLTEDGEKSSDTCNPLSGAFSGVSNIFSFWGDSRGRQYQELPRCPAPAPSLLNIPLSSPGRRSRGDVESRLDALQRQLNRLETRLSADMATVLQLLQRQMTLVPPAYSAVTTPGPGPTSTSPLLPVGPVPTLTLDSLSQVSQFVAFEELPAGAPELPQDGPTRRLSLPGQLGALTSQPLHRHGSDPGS
Procedure: For the experiments with xenopus oocytes, the experimental amounts known to be successful for transfections i.e. 500 pg to 37 ng, of hereditary information (cRNA) for the channel to be investigated, which is known from the literature, present as clone and replicated by means of a polymerase chain reaction, was applied by pressure injection into the egg cells. After this treatment, the oocytes were placed in a nutrient medium and kept alive. After one week, the egg cells were brought individually into a recording chamber and, using the two-electrode voltage clamp method, investigated electrophysiologically. For this purpose, the egg cells, starting out from a holding potential of −80 mV, were hyperpolarized and depolarized for, in each case, 2 seconds, in 10 mV steps to different membrane potentials between −130 and +30 mV and the resulting membrane current was measured. These experiments were carried out in the presence of a control solution as well as of 1, 10 and 100 μM of retigabine and the current voltage curves obtained were compared. […] In addition, in accordance with a method already described (Rundfeldt, 1999b), retigabine was added at a concentration of 10 μM to cells, which were slightly depolarized (−60 or −50 mV), and the current induced thereby was quantified. The latter method was employed in order to quantify the currents shown in the Table and induced by retigabine. […]

Kv1.2, sequence (P16389 whole entry): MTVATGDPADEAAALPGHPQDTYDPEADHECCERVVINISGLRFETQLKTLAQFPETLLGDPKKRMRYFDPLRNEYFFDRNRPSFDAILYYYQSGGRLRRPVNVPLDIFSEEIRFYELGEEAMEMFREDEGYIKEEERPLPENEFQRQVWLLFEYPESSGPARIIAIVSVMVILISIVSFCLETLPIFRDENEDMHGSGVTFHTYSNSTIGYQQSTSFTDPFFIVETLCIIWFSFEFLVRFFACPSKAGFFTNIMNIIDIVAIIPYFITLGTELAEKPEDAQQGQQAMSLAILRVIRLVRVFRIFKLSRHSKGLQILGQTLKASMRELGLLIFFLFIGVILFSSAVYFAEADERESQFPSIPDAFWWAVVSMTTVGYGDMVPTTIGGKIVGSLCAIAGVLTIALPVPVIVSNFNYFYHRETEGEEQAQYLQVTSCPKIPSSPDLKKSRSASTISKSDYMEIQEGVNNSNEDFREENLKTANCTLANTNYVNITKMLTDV
erg1, sequence (Q12809 whole entry): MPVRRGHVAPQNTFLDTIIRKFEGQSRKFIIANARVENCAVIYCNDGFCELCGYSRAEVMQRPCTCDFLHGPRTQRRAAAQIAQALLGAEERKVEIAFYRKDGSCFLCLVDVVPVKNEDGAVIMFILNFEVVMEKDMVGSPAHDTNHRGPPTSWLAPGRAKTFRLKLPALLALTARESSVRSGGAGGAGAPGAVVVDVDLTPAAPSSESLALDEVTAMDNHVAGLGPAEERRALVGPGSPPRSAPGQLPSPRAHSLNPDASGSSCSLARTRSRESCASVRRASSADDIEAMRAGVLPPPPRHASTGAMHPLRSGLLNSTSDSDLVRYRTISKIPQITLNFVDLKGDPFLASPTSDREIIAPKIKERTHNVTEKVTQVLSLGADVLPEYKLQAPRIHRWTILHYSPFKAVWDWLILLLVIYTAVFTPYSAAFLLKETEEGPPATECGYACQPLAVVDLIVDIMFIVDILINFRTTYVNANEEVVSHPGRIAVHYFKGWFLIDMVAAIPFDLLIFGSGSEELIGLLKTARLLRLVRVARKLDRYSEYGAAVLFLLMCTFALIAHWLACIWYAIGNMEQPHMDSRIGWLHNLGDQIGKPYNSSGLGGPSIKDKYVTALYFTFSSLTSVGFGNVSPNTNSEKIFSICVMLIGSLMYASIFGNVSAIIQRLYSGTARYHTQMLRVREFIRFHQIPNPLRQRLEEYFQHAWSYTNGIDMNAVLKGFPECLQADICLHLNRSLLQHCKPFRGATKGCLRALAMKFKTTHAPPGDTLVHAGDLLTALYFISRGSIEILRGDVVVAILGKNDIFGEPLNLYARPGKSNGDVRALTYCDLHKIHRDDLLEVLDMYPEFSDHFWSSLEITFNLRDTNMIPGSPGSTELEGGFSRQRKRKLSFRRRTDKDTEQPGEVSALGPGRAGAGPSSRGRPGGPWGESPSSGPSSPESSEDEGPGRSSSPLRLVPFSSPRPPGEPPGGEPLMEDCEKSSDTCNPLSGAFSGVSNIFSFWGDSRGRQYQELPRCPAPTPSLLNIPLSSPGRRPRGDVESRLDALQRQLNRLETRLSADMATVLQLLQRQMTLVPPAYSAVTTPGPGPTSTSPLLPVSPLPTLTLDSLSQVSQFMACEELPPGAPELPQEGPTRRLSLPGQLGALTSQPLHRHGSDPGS

| SMILES | Effect on KCNQ1, with affinity similar to that for the M channel [1] | Effect on the M channel [2] | Effect on Kv4.3, with affinity similar to that for the M channel [3] | Effect on erg1, with affinity similar to that for the M channel [4] | Effect on eag1, with affinity similar to that for the M channel [5] | Effect on elk1, with affinity similar to that for the M channel [6] | Effect on erg3, with affinity similar to that for the M channel [7] | Effect on Kv1.2, with affinity similar to that for the M channel [8] | Effect of 10 μM of Retigabine [9] |
| --- | --- | --- | --- | --- | --- | --- | --- | --- | --- |
| O=C1c2ccccc2C(Cc2ccncc2)(Cc2ccncc2)c2ccccc21 [XE991] | inhibits | block | inhibits |  |  |  |  |  |  |
| O=C1N(c2ccccc2)c2ccccc2C1(Cc1ccncc1)Cc1ccncc1 [linopirdine] | blocked | blocks | blocked | blocked | blocked | blocked | blocked | blocked |  |
| CCOC(=O)Nc1ccc(NCc2ccc(F)cc2)cc1N [retigabine, 2-amino-4-(4-fluorobenzylamino)-1-ethoxycarbonyl-aminobenzene] |  |  |  |  |  |  |  |  | No effect |
